The target of assay [1] is T1, recombinant human SK (Homo sapiens, UniProt Q9NYA1).
T1 construct: GST (glutathione-S-transferase) (N); made in house; host or cells: bacteria (pGEX bacterial expression vector)
Put plainly: Recombinant human SK activity assay ([3H]sphingosine to [3H]S1P). The conditions noted are these: Human SK incubated with 6 μg/mL of compound; percentage of SK activity inhibited. Type of assay: biochemical. As for the experimental part:
SK activity is measured by incubation of the recombinant SK with [^3H]sphingosine and 1 mM ATP under defined conditions, followed by extraction of the assay mixture with chloroform:methanol under basic conditions. […] Radioactivity in aliquots of the aqueous phase is then quantified as a measure of [^3H]S1P formation.
Human SK was incubated with 6 μg/mL of the indicated compounds, and then assayed for activity as described above. Values in the column labeled “Recombinant SK (% inhibition)” represent the percentage of SK activity that was inhibited. MDA-MB-231 cells were incubated with 20 μg/mL of the indicated compounds and then assayed for endogenous SK activity as indicated above. Values in the column labeled “Cellular S1P (% inhibition)” represent the percentage of S1P production that was inhibited. Additionally, MDA-MB-231 cells were treated with varying concentration of certain compounds and the amount of S1P produced by the cells was determined. Values in the column labeled “Cellular S1P IC50 (μM)” represent the concentration of compound required to inhibit the production of S1P by 50%. ND=not determined.

Assay [2] has as its system endogenous SK activity in MDA-MB-231 cells. The assay is described as follows: Cellular S1P production (endogenous SK activity) in MDA-MB-231 cells. Type of assay: cell-based. The conditions noted are these: for inhibition at 20 µg/mL / IC50: Homo sapiens; for inhibition at 20 µg/mL: MDA-MB-231, MDA-MB-231 cells incubated with 20 μg/mL of compound; for IC50: MDA-MB-231 cells, varying concentrations, concentration inhibiting S1P production by 50%. The procedure, abridged: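 MDA-MB-231 cells treated with 20 μg/mL compound and assayed for endogenous SK activity, reported as % inhibition of S1P production. For IC50, cells received varying compound concentrations and S1P produced was measured; IC50 is the concentration giving 50% inhibition.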

[3] abbreviates: percentage of S1P production inhibited.

SMILES strings stand for the structures.

Data on 30 compounds can be found in patent US20120122870A1, “Treatment Of Ischemia-Reperfusion Injury” (MUSC FOUNDATION FOR RESEARCH DEVELOPMENT, priority 2009, published 2012).

T1 sequence (Q9NYA1 whole entry): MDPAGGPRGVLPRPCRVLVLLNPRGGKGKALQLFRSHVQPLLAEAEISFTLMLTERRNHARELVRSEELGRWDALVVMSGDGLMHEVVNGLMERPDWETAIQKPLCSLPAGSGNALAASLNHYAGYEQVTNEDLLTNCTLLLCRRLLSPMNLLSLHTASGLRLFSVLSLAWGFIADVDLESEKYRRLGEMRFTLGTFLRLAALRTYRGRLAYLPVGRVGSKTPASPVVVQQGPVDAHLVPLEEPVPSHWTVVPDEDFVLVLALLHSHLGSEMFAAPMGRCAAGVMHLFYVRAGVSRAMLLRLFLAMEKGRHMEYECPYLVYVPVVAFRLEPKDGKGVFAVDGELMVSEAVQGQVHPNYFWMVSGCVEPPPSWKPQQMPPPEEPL

As for `N#CCc1ccc(NC(=O)C23CC4CC(C2)CC(c2ccc(Cl)cc2)(C4)C3)cc1` [A11, 3-(4-Chloro-phenyl)-adamantane-1-carboxylic acid (4-cyanomethyl-phenyl)-amide], in assay [1], the inhibition at 6 µg/mL is 17%. The compound also had an inhibition at 20 µg/mL in assay [2] (setting [3]) of 0%.
The like results for `O=C(NCc1ccccc1)C12CC3CC(C1)CC(c1ccc(Cl)cc1)(C3)C2` [A12, 3-(4-Chloro-phenyl)-adamantane-1-carboxylic acid benzylamide] were, in that order, 36% and 3%.
The like results for `CC(C)(C)c1ccc(CNC(=O)C23CC4CC(C2)CC(c2ccc(Cl)cc2)(C4)C3)cc1` [A13, 3-(4-Chloro-phenyl)-adamantane-1-carboxylic acid 4-tert-butyl-benzylamide] were, in that order, 78% and 0%.
The matching figures for `CC(NC(=O)C12CC3CC(C1)CC(c1ccc(Cl)cc1)(C3)C2)c1ccc(Br)cc1` (centres unmarked) [A29, 3-(4-Chloro-phenyl)-adamantane-1-carboxylic acid [1-(4-bromo-phenyl)-ethyl]-amide]: 55% and 0%.
`O=C(NCc1ccc(O)c(O)c1)C12CC3CC(CC(C3)C1)C2` [A35, Adamantane-1-carboxylic acid 3,4-dihydroxy-benzylamide]: in assay [1], the inhibition at 6 µg/mL stood at 87%. Further, in assay [2] (setting [3]), 20 µg/mL produced 0% inhibition.
The like results for `O=C(NCCc1ccccc1)C12CC3CC(C1)CC(c1ccc(Cl)cc1)(C3)C2` [A37, 3-(4-Chloro-phenyl)-adamantane-1-carboxylic acid phenethyl-amide] were, in that order, 24% and 36%.
The matching figures for `O=C(NCCc1ccc(F)cc1)C12CC3CC(C1)CC(c1ccc(Cl)cc1)(C3)C2` [A38, 3-(4-Chloro-phenyl)-adamantane-1-carboxylic acid [2-(4-fluoro-phenyl)-ethyl]-amide]: 40% and 34%.
As for `O=C(NCCc1ccc(Br)cc1)C12CC3CC(C1)CC(c1ccc(Cl)cc1)(C3)C2` [A39, 3-(4-Chloro-phenyl)-adamantane-1-carboxylic acid [2-(4-bromo-phenyl)-ethyl]-amide], in assay [1], the inhibition at 6 µg/mL turned out to be 19%. In assay [2] (setting [3]), this compound showed an inhibition at 20 µg/mL of 26%.
The matching figures for `O=C(NCCc1ccc(O)cc1)C12CC3CC(C1)CC(c1ccc(Cl)cc1)(C3)C2` [A40, 3-(4-Chloro-phenyl)-adamantane-1-carboxylic acid [2-(4-hydroxy-phenyl)-ethyl]-amide]: 100% and 52%.
With `O=C(NCc1ccc(Oc2ccccc2)cc1)C12CC3CC(C1)CC(c1ccc(Cl)cc1)(C3)C2` [A41, 3-(4-Chloro-phenyl)-adamantane-1-carboxylic acid 4-phenoxy-benzylamide], in assay [1], the “Recombinant SK (% inhibition)” value came to 67%. The compound also gave an inhibition at 20 µg/mL in assay [2] (setting [3]) of 23%.
On to `O=C(NCCc1ccc(O)c(O)c1)C12CC3CC(CC(C3)C1)C2` [A43, Adamantane-1-carboxylic acid [2-(3,4-dihydroxy-phenyl)-ethyl]-amide], for which the inhibition at 6 µg/mL in assay [1] was 0%. For the same compound, in assay [2] (setting [3]), at 20 µg/mL the inhibition was 0%.
For the compound `O=C(NCCCc1ccccc1)C12CC3CC(C1)CC(c1ccc(Cl)cc1)(C3)C2` [A48, 3-(4-Chloro-phenyl)-adamantane-1-carboxylic acid (3-phenyl-propyl)-amide], the inhibition at 6 µg/mL in assay [1] was found to be 36%. The inhibition at 20 µg/mL in assay [2] (setting [3]) worked out at 14%.
The matching figures for `CN1CCC(NC(=O)C23CC4CC(CC(C4)C2)C3)CC1` [A50, Adamantane-1-carboxylic acid (1-methyl-piperidin-4-yl)-amide]: 0% and 44%.
In the case of `CN1CCC(NC(=O)C23CC4CC(C2)CC(c2ccc(Cl)cc2)(C4)C3)CC1` [A51, 3-(4-Chloro-phenyl)-adamantane-1-carboxylic acid (1-methyl-piperidin-4-yl)-amide], the inhibition at 6 µg/mL in assay [1] was 84%. The compound also showed an inhibition at 20 µg/mL in assay [2] (setting [3]) of 88%. The IC50 in assay [2] was found to be 25 µM.
Turning to `CN1CCN(NC(=O)C23CC4CC(C2)CC(c2ccc(Cl)cc2)(C4)C3)CC1` [A52, 3-(4-Chloro-phenyl)-adamantane-1-carboxylic acid (4-methyl-piperazin-1-yl)-amide], the inhibition at 6 µg/mL in assay [1] came to 54%. In assay [2] (setting [3]), this compound had an inhibition at 20 µg/mL of 61%.
The like results for `CN1CCCC1CCNC(=O)C12CC3CC(CC(C3)C1)C2` (centres unmarked) [A56, Adamantane-1-carboxylic acid [2-(1-methyl-pyrrolidin-2-yl)-ethyl]-amide] were, in that order, 33% and 40%.
`CN1CCCC1CCNC(=O)C12CC3CC(C1)CC(c1ccc(Cl)cc1)(C3)C2` (centres unmarked) [A57, 3-(4-Chloro-phenyl)-adamantane-1-carboxylic acid [2-(1-methyl-pyrrolidin-2-yl)-ethyl]-amide]: in assay [1], the inhibition at 6 µg/mL was 30%. Moreover, testing at 20 µg/mL in assay [2] (setting [3]) gave an inhibition of 83%. The compound further yielded a half-inhibitory concentration (IC50) in assay [2] of 60 µM.
As for `O=C(NCCN1CCOCC1)C12CC3CC(C1)CC(c1ccc(Cl)cc1)(C3)C2` [A58, 3-(4-Chloro-phenyl)-adamantane-1-carboxylic acid (2-morpholin-4-yl-ethyl)-amide], the inhibition at 6 µg/mL in assay [1] amounted to 67%. The same compound yielded an inhibition at 20 µg/mL in assay [2] (setting [3]) of 55%.
Consider `O=C(NCc1ccncc1)C12CC3CC(CC(C3)C1)C2` [A60, Adamantane-1-carboxylic acid (pyridin-4-ylmethyl)-amide], for which the inhibition at 6 µg/mL in assay [1] was 0%. The same compound registered an inhibition at 20 µg/mL in assay [2] (setting [3]) of 23%.
The matching figures for `O=C(NCc1ccncc1)C12CC3CC(C1)CC(c1ccc(F)cc1)(C3)C2` [A61, 3-(4-Fluoro-phenyl)-adamantane-1-carboxylic acid (pyridin-4-ylmethyl)-amide]: 58% and 24%.
As for `O=C(NCc1ccncc1)C12CC3CC(C1)CC(c1ccc(Cl)cc1)(C3)C2` [A62, 3-(4-Chloro-phenyl)-adamantane-1-carboxylic acid (pyridin-4-ylmethyl)-amide], the inhibition at 6 µg/mL in assay [1] stood at 13%. This compound also showed an inhibition at 20 µg/mL in assay [2] (setting [3]) of 92%. For the same compound, half-maximal inhibition in assay [2] (IC50) required 26 µM.
Regarding `O=C(NCc1ccncc1)C12CC3CC(CC(C3)C1)C2` [A63, Adamantane-1-carboxylic acid (pyridin-4-ylmethyl)-amide], in assay [1], the “Recombinant SK (% inhibition)” value came to 0%. Moreover, the “Cellular S1P (% inhibition)” value in assay [2] (MDA-MB-231 cells incubated with 20 μg/mL of compound, percentage of S1P production inhibited) is 39%.
For the compound `O=C(NCCc1ccncc1)C12CC3CC(C1)CC(c1ccc(Cl)cc1)(C3)C2` [A64, 3-(4-Chloro-phenyl)-adamantane-1-carboxylic acid (2-pyridin-4-yl-ethyl)-amide], the inhibition at 6 µg/mL in assay [1] was 41%. This compound gave an inhibition at 20 µg/mL in assay [2] (setting [3]) of 80%. Also, in assay [2], 63 µM corresponded to half-maximal inhibition (IC50).
`Cc1cc2cc(NC(=O)C34CC5CC(C3)CC(c3ccc(Cl)cc3)(C5)C4)ccc2[nH]1` [A66, 3-(4-Chloro-phenyl)-adamantane-1-carboxylic acid (2-methyl-1H-indol-5-yl)-amide]: the inhibition at 6 µg/mL in assay [1] stood at 92%. This compound showed an inhibition at 20 µg/mL in assay [2] (setting [3]) of 8%.
The matching figures for `CCn1c2ccccc2c2cc(NC(=O)C34CC5CC(C3)CC(c3ccc(Cl)cc3)(C5)C4)ccc21` [A68, 3-(4-Chloro-phenyl)-adamantane-1-carboxylic acid (9-ethyl-9H-carbazol-3-yl)-amide]: 17% and 0%.
The matching figures for `O=C(Nc1nc(-c2ccc(Cl)cc2)cs1)C12CC3CC(CC(C3)C1)C2` [A69, Adamantane-1-carboxylic acid [4-(4-chloro-phenyl)-thiazol-2-yl]-amide]: 40% and 13%.
Take `O=C(Nc1nc(-c2ccc(Cl)cc2)cs1)C12CC3CC(C1)CC(c1ccc(Cl)cc1)(C3)C2` [A70, 3-(4-Chloro-phenyl)-adamantane-1-carboxylic acid [4-(4-chloro-phenyl)-thiazol-2-yl]-amide]: in assay [1], the inhibition at 6 µg/mL amounted to 33%. Besides, in assay [2] (setting [3]), the inhibition at 20 µg/mL came to 4%.
The like results for `O=C(Nc1nc2ccccc2s1)C12CC3CC(C1)CC(c1ccc(Cl)cc1)(C3)C2` [A71, 3-(4-Chloro-phenyl)-adamantane-1-carboxylic acid benzothiazol-2-ylamide] were, in that order, 27% and 0%.
On to `O=C(Nc1nc2cc(Cl)ccc2o1)C12CC3CC(C1)CC(c1ccc(Cl)cc1)(C3)C2` [A72, 3-(4-Chloro-phenyl)-adamantane-1-carboxylic acid (5-chloro-benzooxazol-2-yl)-amide], for which, in assay [1], the inhibition at 6 µg/mL was 14%. The inhibition at 20 µg/mL in assay [2] (setting [3]) was found to be 1%.
In the case of `CN1CCN(NCC23CC4CC(C2)CC(c2ccc(Cl)cc2)(C4)C3)CC1` [A83, [3-(4-Chloro-phenyl)-adamantan-1-ylmethyl]-(4-methyl-piperazin-1-yl)-amine], the inhibition at 6 µg/mL in assay [1] came to 60%. The compound further displayed an inhibition at 20 µg/mL in assay [2] (setting [3]) of 88%. For the same compound, the IC50 in assay [2] turned out to be 16 µM.

As usually defined, the inhibition is the change of the read-out against control, counted positive when it falls. One may read the IC50 as the concentration that gives 50% inhibition. Higher therefore signals a need for much substance.
